# Biological target: Recombinant FKBP12 (Homo sapiens, UniProt P62942)
# Assay: Pure protein target engagement assay
# Assay type: binding
# Recombinant FKBP12, sequence (P62942 whole entry): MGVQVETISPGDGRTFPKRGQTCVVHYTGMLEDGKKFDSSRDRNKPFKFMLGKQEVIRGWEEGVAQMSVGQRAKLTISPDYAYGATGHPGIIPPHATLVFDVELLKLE
smiles,measurement,setting,value
"CO[C@H]1C[C@@H]2CC[C@@H](C)[C@@](O)(O2)C(=O)C(=O)N2CCCC[C@H]2C(=O)O[C@H]([C@H](C)C[C@@H]2CC[C@@H](O)[C@H](OC)C2)CC(=O)[C@H](C)/C=C(\C)[C@@H](O)[C@@H](OC)C(=O)[C@H](C)C[C@H](C)/C=C/C=C/C=C/1C [rapamycin, reference compound]",Competition of PAL probe interaction with FKBP12,"rapamycin 10 µM pretreatment, purified and crude probes 10 µM",prevented interaction with the PAL probes
"C#CCCC1(CC[C@H](NC(=O)NCCCCCCNC(=O)NCCN)C(N)=O)N=N1 [Compound 7, (S)-16-amino-2-(2-(3-(but-3-yn-1-yl)-3H-diazirin-3-yl)ethyl)-4,13-dioxo-3,5,12,14-tetraazahexadecanamide]",Nonspecific labeling of FKBP12,"crude linker, 10 and 40 µM, negative control",not seen
C#CCCC1(CC[C@H](NC(=O)NCCCCCCNC(=O)NCCNC(=O)COc2cccc([C@@H](CCc3ccc(OC)c(OC)c3)OC(=O)[C@H]3CCCN3C(=O)C(=O)C(C)(C)CC)c2)C(N)=O)N=N1.O=C(O)C(F)(F)F [Compound 6],Fluorescent intensity of the bands,"crude probes 10 µM, comparison",brighter than crude 3
C#CCCC1(CC[C@H](NC(=O)NCCCCCCNC(=O)NCCNC(=O)COc2cccc([C@@H](CCc3ccc(OC)c(OC)c3)OC(=O)[C@@H]3CCCCN3C(=O)C(=O)C(C)(C)CC)c2)C(N)=O)N=N1.O=C(O)C(F)(F)F [Compound 3],Labeling of FKBP12 in dilution series,"8-point, 5-fold dilution series, UV irradiated",Dose-dependent labeling
